From the CombiSolv-Exp solvation set (Vermeire and Green 2021)

Test: solvent given as SMILES

O=C1c2ccccc2-c2ccccc21
Settings	solvation free energy, 298 K [kcal/mol]
in CC(C)(C)O	-10.4
in CC(C)CC(C)(C)C	-9.57
in CC(C)CCO	-10.5
in CC(C)CO	-10.3
in CC(C)O	-10.4
in CC(C)OC(C)C	-10.5
in CCC(C)O	-10.5
in CCCCC(CC)CO	-10.5
in CCCCCC	-9.78
in CCCCCCC	-9.83
in CCCCCCCC	-9.86
in CCCCCCCCC=CCCCCCCCC(=O)OCC(COC(=O)CCCCCCCC=CCCCCCCCC)OC(=O)CCCCCCCC=CCCCCCCCC	-10.5
in CCCCCCCCCC	-9.9
in CCCCCCCCCCO	-10.6
in CCCCCCCCO	-10.7
in CCCCCCCO	-10.7
in CCCCCCO	-10.6
in CCCCCO	-10.6
in CCCCO	-10.6
in CCCO	-10.6
in CCO	-10.6
in CO	-10.6
in COC(C)(C)C	-11
in ClC(Cl)(Cl)Cl	-11.5
in ClCCl	-12
in Fc1ccccc1	-11.7
in O	-5.78

CCC
Settings	solvation free energy, 298 K [kcal/mol]
in Brc1ccccc1	-1.43
in C1CCC2CCCCC2C1	-1.52
in C1COCCO1	-1.24
in CC1COC(=O)O1	-0.58
in CC(=O)N(C)C	-1.09
in CC(C)(C)O	-1.39
in CC(C)=O	-1.36
in CC(C)CCO	-1.33
in CC(C)CO	-1.32
in CC(C)O	-1.21
in CC(CC(C)(C)C)CC(C)(C)CC(C)(C)C	-2.21
in CCC(C)(C)O	-1.42
in CCC(C)CO	-1.32
in CCC(O)CC	-1.34
in CCCC(C)O	-1.34
in CCCCC	-1.81
in CCCCCC	-1.8
in CCCCCCC	-1.77
in CCCCCCCC	-1.74
in CCCCCCCCC	-1.71
in CCCCCCCCCC	-1.67
in CCCCCCCCCCCC	-1.54
in CCCCCCCCCCCCC	-1.54
in CCCCCCCCCCCCCC	-1.49
in CCCCCCCCCCCCCCC	-1.48
in CCCCCCCCCCCCCCCC	-1.42
in CCCCCCCCO	-1.28
in CCCCCCCO	-1.22
in CCCCCO	-1.32
in CCCCO	-1.35
in CCCO	-1.32
in CCO	-1.24
in CN1CCCC1=O	-0.89
in CN(C)C=O	-0.88
in CN(C)P(=O)(N(C)C)N(C)C	-1.15
in CO	-1.15
in COCCOCCO	-0.77
in COCCOCCOC	-1.24
in COCCOCCOCCOC	-0.95
in COCCOCCOCCOCCOC	-0.98
in CS(C)=O	-0.36
in Cc1ccc(C)cc1	-1.56
in Cc1cccc(C)c1	-1.62
in Cc1ccccc1C	-1.52
in ClC(Cl)(Cl)Cl	-1.83
in Clc1ccccc1	-1.61
in Ic1ccccc1	-1.51
in N#Cc1ccccc1	-1.11
in NC=O	0.19
in Nc1ccccc1	-0.79
in O	1.96
in OC1CCCCC1	-1.1
in OCCCOCCCO	-0.57
in OCc1ccccc1	-0.84
in c1ccccc1	-1.61

O=C(c1ccccc1[N+](=O)[O-])N(O)c1ccccc1
Settings	solvation free energy, 298 K [kcal/mol]
in O	-14.5

CCCCCC(=O)c1c(C)[nH]n(-c2ccccc2)c1=O
Settings	solvation free energy, 298 K [kcal/mol]
in O	-9.26

c1ccc2c(c1)[nH]c1ccccc12
Settings	solvation free energy, 298 K [kcal/mol]
in CC(=O)N(C)C	-14
in CN1CCCC1=O	-14.5
in O	-7.18

Clc1ccc(Cl)c(-c2ccccc2Cl)c1
Settings	solvation free energy, 298 K [kcal/mol]
in CCCCCCCCC=CCCCCCCCC(=O)OCC(COC(=O)CCCCCCCC=CCCCCCCCC)OC(=O)CCCCCCCC=CCCCCCCCC	-9.75
in O	-2.37

CC(C)C
Settings	solvation free energy, 298 K [kcal/mol]
in C1CCC2CCCCC2C1	-2
in CC1COC(=O)O1	-0.87
in CC(C)(C)O	-1.86
in CC(C)=O	-1.87
in CC(C)CCO	-1.8
in CC(C)CO	-1.8
in CC(C)O	-1.9
in CCC(C)(C)O	-1.92
in CCC(C)CO	-1.8
in CCC(C)O	-1.79
in CCC(O)CC	-1.83
in CCCC(C)O	-1.8
in CCCCC	-2.38
in CCCCCC	-2.33
in CCCCCCC	-2.31
in CCCCCCCC	-2.3
in CCCCCCCCC	-2.2
in CCCCCCCCCC	-2.23
in CCCCCCCCCCCCCCCC	-1.91
in CCCCCCCO	-1.68
in CCCCCO	-1.79
in CCCCO	-1.91
in CCCO	-1.77
in CCO	-1.64
in CCOC(C)=O	-2.16
in CCOCC	-2.33
in CN1CCCC1=O	-1.2
in CN(C)C=O	-1.32
in CN(C)P(=O)(N(C)C)N(C)C	-1.53
in CO	-1.46
in COCCOCCOCCOC	-1.18
in CS(C)=O	-0.53
in Cc1ccc(C)cc1	-2.06
in Cc1cccc(C)c1	-2.07
in Cc1ccccc1C	-2.04
in ClC(Cl)(Cl)Cl	-2.37
in Clc1ccccc1	-2.25
in Nc1ccccc1	-1.07
in O	2.32
in O=CN1CCOCC1	-0.64
in OC1CCCCC1	-1.55
in OCCCOCCCO	-0.87
in OCCO	-0.19
in OCc1ccccc1	-1.16
in c1ccccc1	-2.08

c1ccc(N=Nc2ccccc2)cc1
Settings	solvation free energy, 298 K [kcal/mol]
in CCCCCCCCC=CCCCCCCCC(=O)OCC(COC(=O)CCCCCCCC=CCCCCCCCC)OC(=O)CCCCCCCC=CCCCCCCCC	-11.2
in O	-4.82

C#CC(C)(C)O
Settings	solvation free energy, 298 K [kcal/mol]
in O	-5.18

CN1CCN(C)CC1
Settings	solvation free energy, 298 K [kcal/mol]
in O	-7.58

Oc1c(Cl)cc(Cl)cc1Cl
Settings	solvation free energy, 298 K [kcal/mol]
in CCCCCCCCC=CCCCCCCCC(=O)OCC(COC(=O)CCCCCCCC=CCCCCCCCC)OC(=O)CCCCCCCC=CCCCCCCCC	-8.28
in O	-4.95

C=CCO
Settings	solvation free energy, 298 K [kcal/mol]
in CC(=O)N(C)C	-4.69
in CCCCN(C=O)CCCC	-5.42
in CNC(C)=O	-5.87
in O	-5.04

CCCCCCCCCCOC(=O)c1ccccc1C(=O)OCC
Settings	solvation free energy, 298 K [kcal/mol]
in O	-6.78

CNC(=O)Oc1cccc2c1OC(C)(C)C2
Settings	solvation free energy, 298 K [kcal/mol]
in O	-9.61

C=C(C)C1CCC2=CCCC(C)C2(C)C1 (centres undefined)
Settings	solvation free energy, 298 K [kcal/mol]
in O	-0.15

O=C(O)Cc1ccc(C(=O)O)cc1
Settings	solvation free energy, 298 K [kcal/mol]
in C=CCCCCCCCCCCCCCC	-10.5
in O	-16.5

CCn1ccc(NS(=O)(=O)c2ccc(N)cc2)nc1=O
Settings	solvation free energy, 298 K [kcal/mol]
in O	-20.6

ClC(Cl)C(Cl)Cl
Settings	solvation free energy, 298 K [kcal/mol]
in CC(C)=O	-6.28
in CCCCCCCCCCCCCCCC	-5.21
in CCCCCCCCO	-5.84
in ClC(Cl)(Cl)Cl	-5.93
in ClCCCl	-6.37
in O	-2.45
in [2H]O[2H]	-2.59

COC(=O)c1cccc([N+](=O)[O-])c1
Settings	solvation free energy, 298 K [kcal/mol]
in CN(C)C=O	-10.8
in O	-6.79

Cc1ccc2c(C)ccc(C(C)C)c2c1
Settings	solvation free energy, 298 K [kcal/mol]
in O	-2.5

CC=CCCC
Settings	solvation free energy, 298 K [kcal/mol]
in NC=O	-1.06
in OCCO	-1.25
in OCCOCCO	-1.92
in OCCOCCOCCO	-2.02

FC(F)(Cl)C(F)(F)Cl
Settings	solvation free energy, 298 K [kcal/mol]
in CCCCCCCC(=O)OCC(COC(=O)CCCCCCC)OC(=O)CCCCCCC	-1.63
in CCCCCCCCO	-1.61
in CN1CCCC1=O	-1.49
in CN(C)C=O	-1.6
in O	2.25
